Assay results published in patent US12502385B2, “Analogs of deutetrabenazine, their preparation and use” (Auspex Pharmaceuticals, Inc., priority 2017, dated 2025).
Values joined by “and” are separate entries in the source; they are usually repeats but may differ in a detail not shown here. Equal values may be shown once.

How the values were obtained:
[1] = 90-day GLP general rat toxicology study
Description: A 90-day GLP general rat toxicology study was conducted with Compound 1.

[2] = test system: mice; conditions: mouse, in vivo
Description: A 3-day GLP mouse micronucleus study was conducted with Compound 1. That study included a GLP Bacterial Reverse Mutation Assay of deutetrabenazine with Compound 1. That study also included an in vitro Chromosome Aberration Test in Cultured Human Peripheral Blood Lymphocytes. In the study, the highest level of 80 mg/kg/day of deutetrabenazine was not genotoxic in males and females. That dose level was predicted to provide 2.77 mg Compound 1/kg/day in mice, which approximates to a human equivalent dose of 0.23 mg/kg.

| SMILES | NOAEL at 90 day ([1]; in vivo) | Compound 1 dose provided at the non-genotoxic deutetrabenazine level ([2]; both, 3 day) [mg/kg/day] | human equivalent dose of Compound 1 at the non-genotoxic level ([2]; both, 3 day) [mg/kg] | NOAEL at 90 day ([1]; rat) [mg/kg/day] | genotoxicity ([2]; 80 mg/kg/day) |
| --- | --- | --- | --- | --- | --- |
| [2H]C([2H])([2H])Oc1cc2c(cc1OC([2H])([2H])[2H])[C@@H]1CC(=O)[C@H](CC(C)C)CN1CC2 (racemic) [Compound 1, (RS, SR)-1,3,4,6,7,11b-hexahydro-9,10-di(methoxy-d3)-3-(2-methylpropyl)-2H-benzo[a]quinolizin-2-one] | 0.346 mg/kg/day and ~0.056 mg/kg | 2.77 | ~0.23 |  |  |
| [2H]C([2H])([2H])Oc1cc2c(cc1OC([2H])([2H])[2H])C1CC(=O)C(CC(C)C)CN1CC2 (centres unmarked) [deutetrabenazine, d6-Tetrabenazine] |  |  |  | 10 | not genotoxic |
